Read-outs that look alike come from different tables or passages of the source.
Columns and labels:
[1] = target: T1, Arabidopsis thaliana HPPD (AtHPPD) (Arabidopsis thaliana, UniProt P93836); assay: AtHPPD enzyme inhibition study; format: biochemical
T1 construct: made in house
T1 sequence (P93836 1-445): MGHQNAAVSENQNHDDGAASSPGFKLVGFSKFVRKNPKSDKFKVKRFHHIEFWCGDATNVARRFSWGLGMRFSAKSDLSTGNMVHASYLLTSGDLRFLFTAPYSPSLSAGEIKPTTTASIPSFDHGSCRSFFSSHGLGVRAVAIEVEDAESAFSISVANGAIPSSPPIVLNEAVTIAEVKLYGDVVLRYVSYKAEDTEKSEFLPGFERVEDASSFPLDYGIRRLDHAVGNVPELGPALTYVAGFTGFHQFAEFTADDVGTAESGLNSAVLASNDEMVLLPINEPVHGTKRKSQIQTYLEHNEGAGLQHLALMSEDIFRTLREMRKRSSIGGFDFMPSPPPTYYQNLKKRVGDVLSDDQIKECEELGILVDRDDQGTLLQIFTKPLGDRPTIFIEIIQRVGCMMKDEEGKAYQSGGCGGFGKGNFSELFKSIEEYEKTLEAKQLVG
Description: AtHPPD was prepared and puriﬁed according to the reported methods in the literature [19–2035–37].

[2] = tested on: E. crus-galli, S. faberii, D. sanguinalis, A. retroflexus, E. prostrata, A. juncea; assay: Post-emergence greenhouse herbicidal activity; format: in vivo; design: Sum of inhibition rate: scale not given here; conditions: post-emergence, 150 g ai/ha; for Sum of inhibition rate: sum over six weeds (AJ, AR, EP, DS, EC, SF), 18 days after treatment
[3] = tested on: rice; assay: Postemergence crop safety, rice; format: in vivo; conditions: 150 g ai/ha, four-leaf stage, after 15 days
Description: (§1) The representative crops, rice, wheat, maize, cotton, soybean, and canola were selected to test the crop safety of compound II3, II4, and II5. The six crops were separately planted in ﬂowerpots (12 cm diameter) containing the composite nutrient soil and grown at room temperature. When the crops had reached the four-leaf stage, the safety experiments were conducted at the rate of 150 g ai/ha. After 15 days, the ﬁnal results of crop safety were evaluated with two duplicates per experiment (Table 3).

[4] = tested on: wheat; assay: Postemergence crop safety, wheat; format: in vivo; conditions: postemergence, 150 g ai/ha, four-leaf stage, after 15 days
Description: as §1

[5] = tested on: maize; assay: Postemergence crop safety, maize; format: in vivo; conditions: postemergence, 150 g ai/ha, four-leaf stage, after 15 days
Description: as §1

[6] = tested on: cotton; assay: Postemergence crop safety, cotton; format: in vivo; conditions: 150 g ai/ha, four-leaf stage, after 15 days
Description: as §1

[7] = tested on: soybean; assay: Postemergence crop safety, soybean; format: in vivo; conditions: 150 g ai/ha, four-leaf stage, after 15 days
Description: as §1

[8] = tested on: canola; assay: Postemergence crop safety, canola; format: in vivo; conditions: 150 g ai/ha, four-leaf stage, after 15 days
Description: as §1

Row | SMILES | Ki [1] [nM] | herbicidal activity (in words) [2] | Sum of inhibition rate [2] | % injury rice [3] [%] | % injury wheat [4] [%] | % injury maize [5] [%] | % injury cotton [6] [%] | % injury soybean [7] [%] | % injury canola [8] [%] | Ki ([1]; read-out: AtHPPD inhibition Ki) [nM]
1 | Cn1nc(C(F)(F)F)c(C(=O)COc2nc(Cl)c(Cl)cc2Cl)c1O [II5] | 120 ± 3 | excellent herbicidal activities | 415 | 50 | 50 | 30 | 90 | 70 | 100 | 
2 | CS(=O)(=O)c1ccc(C(=O)C2C(=O)CCCC2=O)c([N+](=O)[O-])c1 [mesotrione, reference compound] |  |  | 510 | 50 | 40 | 10 | 80 | 50 | 100 | 13 ± 1

Source: paper PMC7059547, “Synthesis and herbicidal activities of aryloxyacetic acid derivatives as HPPD inhibitors” (Beilstein Journal of Organic Chemistry, 2020)
